Measurements published in publication PMC8191290, “Substrate specificities and reaction kinetics of the yeast oligosaccharyltransferase isoforms” (The Journal of Biological Chemistry, 2021).

Target: T1, OST6 complex (Saccharomyces cerevisiae, UniProt P39007)
T1 construct: were purified separately from strains expressing only one type of complex; made in house; host or cells: Saccharomyces cerevisiae, BY4742-derived strain ost3::LEU2MX6 OST4-1D4::kanMX6 YEp352-OST6
Test: Synthetic LLO preferences and OST activity comparison, OST6 complex
Assay type: biochemical
Settings: OST6 complex 0.5 μM, 25 μM TAMRA-YANATS, 50 μM LLO; n = 3
Protocol: Figure 5 OST3 complex turns over both glycosylation substrates faster than the OST6 complex, but with similar substrate affinities.A, enzyme activity of OST3 and OST6 complexes. Reactions were performed with 25 μM peptide TAMRA-YANATS, 50 μM LLO C20, and varying concentrations of purified OST3 complex (blue) or OST6 complex (red). Glycopeptide product was measured by UPLC and initial rates of reaction were determined by linear regression of the initial phase of the reaction. Turnover rates were determined by linear regression of the initial rates of reaction measured across the enzyme concentrations of 0.01–0.1 μM for OST3 complex and 0.1–0.5 μM for OST6 complex. Error bars indicate standard deviations from the mean of three reaction sets (n = 3). B, synthetic LLO preferences of OST3 and OST6 complexes. […] Turnover rates were determined by linear regression of the initial phase of the reaction and accounting for the enzyme concentration in the reaction. […] C, quantification of kinetic parameters for the synthetic LLO C20. […] Turnover rates were determined by linear regression of the initial phase of the reaction and accounting for the enzyme concentration in the reaction. […] D, quantification of kinetic parameters for the peptide TAMRA-YANATS. […] Turnover rates were determined by linear regression of the initial phase of the reaction and accounting for the enzyme concentration in the reaction. […]

Question: How did the “turnover rate ranking among LLO analogs” value turn out when `CC(=O)N[C@H]1[C@@H](OP(=O)(O)OP(=O)(O)OC/C=C(\C)CC/C=C(\C)CCC=C(C)C)O[C@H](CO)[C@@H](O[C@@H]2O[C@H](CO)[C@@H](O)[C@H](O)[C@H]2NC(C)=O)[C@@H]1O` [LLO C15] was run?
Answer: lowest reaction rates
